Assay results as given in patent US20210055311A1, “SCREENING METHOD FOR ESTROGENIC AND ANTI-ESTROGENIC ACTIVITY” (BUNDESINSTITUT FÜR RISIKOBEWERTUNG, priority 2018, published 2021).

Tests used:
Type in all cases: cell-based, human
MCF-7/BOS cells = assay: Adherens junction morphology upon fulvestrant in parental MCF-7/BOS cells; conditions: 10^−8 M, 48 h
Procedure: Next, the inventors tried to reproduce the effects obtained with the cells as deposited under DSM ACC3321 with other conventional MCF-7 cells, namely MCF-7/BOS provided by Prof. Ana Soto (Tufts University School of Medicine, Boston, Mass., USA) and the MCF-7/ACC115 clone obtained from the Leibniz-Institut DSMZ-Deutsche Sammlung von Mikroorganismen and Zellkulturen GmbH (Braunschweig, Germany).
Briefly, the MCF-7 cells were seeded and grown on glass coverslips in multi-well tissue culture plates (TPP) for 24 h to reach near 100% confluence and then treated for at least 48 h with 0.1% EtOH (solvent control) and the ERα antagonist fulvestrant (Sigma-Aldrich, CAS-No. 129453-61-8) at a concentration of 10^−8 M. During experiments, medium was exchanged on a daily basis. All experiments were performed at 37° C. with 5% CO2 in reduced-serum medium (phenol red-free DMEM (Gibco), 5% FBS (Biochrom, S 0615, LOT1353 W), 1% glutamine, 100 μg/ml streptomycin/100 U/ml penicillin (Biochrom)).

[1] = system: MCF-7/vBOS breast cancer cells; assay: Cell stiffness by atomic force microscopy (AFM) indentation
Procedure: FIG. 10 illustrates that inhibition of ERα signaling increases tissue stability by modulating cell mechanics and cell motility. (A) Quantification of cell stiffness (Apparent elastic (Young's) modulus) by atomic force microscopy (AFM) indentation measurements on cells treated with fulvestrant for 48 hours (ERepl.1=0.7141±0.1193 kPa; ERepl.2=0.651±0.1407 kPa; ERepl.3=0.5938±0.1564 kPa; mean±s.d.) compared to solvent control cells (, ERepl.1=0.4841±0.1194 kPa; ERepl.2=0.4088±0.1513 kPa; ERepl.3=0.4660±0.1189 kPa). Biological replicates, n=3; 50-60 cells per condition. Boxes, 25th, 50th (median), and 75th percentiles. Whiskers, 10th and 90th percentiles. Cross, mean for each group. Statistical testing, Mann-Whitney tests; **, p values<0.01. (B) Quantification of cell motility (velocity) by manual tracking of cells treated with fulvestrant for 48 hours (VRepl.1=0.0613±0.0176 μm/min; VRepl.2=0.0553±0.0157 μm/min; VRepl.3=0.051±0.014 μm/min; mean±s.d.) compared to solvent control cells (VRepl.1=0.113±0.0237 μm/min; VRepl.2=0.0757±0.023 μm/min; VRepl.3=0.0827±0.0174 μm/min). Biological replicates, n=3; 3 fields with 10 cells each per replicate and condition were imaged every 10 minutes over the course of 16 h. Boxes, 25th, 50th (median), and 75th percentiles. Whiskers, 10th and 90th percentiles. Cross, mean for each group. Statistical testing, Mann-Whitney tests; **, p values<0.01.
To test whether anti-estrogens also impact on the biomechanical properties of MCF-7/vBOS breast cancer cells, the inventors performed atomic force microscopy (AFM) indentation measurements on confluent monolayers. For this purpose, MCF7/vBos cells were grown and treated in 35 mm FluoroDish cell culture dishes (WPI) as described above. AFM indentation measurements were performed in CO2 Independent Medium (Gibco) at 37° C. using the NanoWizard 1 or 4 (JPK Instruments). Prior to measurements, tip-less Arrow-TLlsilicone cantilevers (Nanoworld) were equipped with polystyrene beads of 5 μm in diameter (microParticles GmbH, Germany) using epoxy glue, and calibrated using built-in procedures of the SPM software (JPK Instruments). The cantilever was positioned above the confluent epithelial monolayer and lowered with a speed of 10 μm/s. In each experiment, force-distance curves (force setpoint 2.5 nN) from 3-4 different positions per cell were collected. Force-distance curves were transformed into force-versus-tip sample separation curves according to Radmacher (Methods Cell Biol 2002; 68:67-90), and fitted with the Hertz/Sneddon model (27) for a spherical indenter using the JPK Data Processing software (JPK Instruments). […] Apparent elastic (Young's) moduli were determined using the Hertz model for a quadratic pyramid using the JPK Data Processing software (JPK Instruments).

MCF-7/vBOS cells = assay: Adherens junction stability: cell rounding after EGTA-containing medium (live imaging); conditions: pre-treated 48 hours; EGTA 8×10^−3 M, 120 minutes; vs control cells
Procedure: FIG. 9 provides a CellProfiler/CellProfiler-Analyst-based quantification (analogous to FIG. 7) showing the rate of cell rounding over the course of 120 minutes in MCF7/vBOS cells pre-treated with fulvestrant for 48 hours (dotted bars) compared to solvent control cells (black bars). Indicated time points depict time after application of EGTA-containing medium (EGTA, 8×10^−3 M) to disrupt adherens junctions. Biological replicates, n=3. Error bars, mean+/−s.e.m. Statistical testing, one-way ANOVA with Sidak's correction for multiple comparisons; *, p<0.05; **, p<0.01; ***, p<0.005; ****, p<0.001. Scale bar, 50 μm.
In a further set of experiments, the inventors tested whether the anti-estrogen-mediated reorganization of adherens junctions likewise increased adherens junction stability in MCF-7/vBOS cells. Therefore, EGTA-containing medium (8×10^−3 M) was applied to both control cells and cells pre-treated for 48 hours with fulvestrant to disrupt homophilic E-Cadherin binding, and the fraction of rounded cells was monitored over the course of 120 minutes by live imaging. Quantification of rounded cells vs. non-rounded cells was done in analogous manner as described above in example 7 for quantification of continuous and discontinuous adherens junctions.

C[C@]12CC[C@@H]3c4ccc(O)cc4C[C@@H](CCCCCCCCC[S+]([O-])CCCC(F)(F)C(F)(F)F)[C@H]3[C@@H]1CC[C@@H]2O (stereo partly drawn) [Fulvestrant]
adherens junctions morphology in absence and presence of fulvestrant (MCF-7/BOS cells): same continuous adherens junctions morphology
cell rigidity ([1]; throughout the cell surface and at junctional regions, vs solvent control): significantly elevated
Apparent elastic (Young's) modulus, Repl.1 ([1]; treated 48 hours, mean±s.d., replicate 1): 0.7141±0.1193 kPa
Apparent elastic (Young's) modulus, Repl.2 ([1]; treated 48 hours, mean±s.d., replicate 2): 0.651±0.1407 kPa
Apparent elastic (Young's) modulus, Repl.3 ([1]; treated 48 hours, mean±s.d., replicate 3): 0.5938±0.1564 kPa
rate of cell rounding (MCF-7/vBOS cells): significantly reduced
